Source: patent US20260007687A1, “A[…] EMULSION INJECTION AND METHOD FOR PREPARING SAME” (JIANGSU NHWA PHARMACEUTICAL CO., LTD, priority 2022, published 2026)

Experiments:
[1] = background statement; cited from earlier work
[2] = ED50 of alphaxalone (basis of the dose in the histamine test); conditions: in vivo
[3] = test system: histamine content in mouse plasma; assay: Mouse histamine release: plasma histamine content (ELISA) 30 min after intravenous injection; conditions: mice
Description: Overall test method: the corresponding solution or formulation was prepared. Administration was performed by intravenous injection, and blood was collected 30 min after administration. After anticoagulation with EDTA, the blood was centrifuged to collect the plasma, and the histamine content in mouse plasma was measured with an ELISA kit.
Blank plasma: blood was directly collected from mice and centrifuged.
Normal saline: normal saline was injected at an administration volume of 5 mL/kg.
Blank fat emulsion (20% medium-long-chain fat emulsion): the administration volume was 5 mL/kg.
SBE-β-CD: the preparation method was: 0.7 mL of 13% SBE-β-CD+4.3 mL of normal saline, and the administration volume was 5 mL/kg. […] Cremophor EL: 0.7 mL of Cremophor EL+4.3 mL of normal saline, the concentration of Cremophor EL was 0.14 mL/mL, the dose was 5 mL/kg, and the dose of Cremophor EL was 0.7 mL/kg.
SBE-β-CD & Cremophor EL: 0.7 mL of 13% SBE-β-CD+0.7 mL of Cremophor EL+3.6 mL of normal saline, and the administration volume was 5 mL/kg.
The administration volume was 3.5 mL/kg, the dose was 7 mg/kg; the administration amount of castor oil was 0.245 mL/kg.

C[C@]12CC[C@@H](O)C[C@@H]1CC[C@H]1[C@@H]3CC[C@H](C(=O)CO)[C@@]3(C)CC(=O)[C@@H]12 [alphadolone]
potency of alphadolone relative to alphaxalone [1]: half

CC(=O)[C@H]1CC[C@H]2[C@@H]3CC[C@H]4C[C@H](O)CC[C@]4(C)[C@H]3C(=O)C[C@]12C [alphaxalone]
ED50 of alphaxalone [2]: about 3.5 mg/kg

sulfobutyl-β-cyclodextrin [SBE-β-CD]
Plasma histamine concentration [3]: 15.28 ± 2.33 ng/mL
